According to ChEMBL document CHEMBL4373715, “Discovery and Biological Evaluations of Halogenated 2,4-Diphenyl Indeno[1,2-b]pyridinol Derivatives as Potent Topoisomerase IIα-Targeted Chemotherapeutic Agents for Breast Cancer” (J Med Chem, 2019):
Where a name gives a salt, the structure may show the parent alone. The source made the active and inactive calls. The rule behind the calls is not given here.

How the values were obtained:
HCT-15 = assay: Antiproliferative activity against human HCT15 cells measured after 72 hrs by EZ-Cytox assay; format: functional, cell-based; settings: HCT-15, 72 h
T47D [1] = assay: Antiproliferative activity against human T47D cells measured after 72 hrs by EZ-Cytox assay; format: functional, cell-based
DU-145 = assay: Antiproliferative activity against human DU145 cells measured after 72 hrs by EZ-Cytox assay; format: functional, cell-based; settings: DU-145, 72 h
HeLa = assay: Antiproliferative activity against human HeLa cells measured after 72 hrs by EZ-Cytox assay; format: functional, cell-based
[2] = molecular target: T1, DNA topoisomerase 1 (Homo sapiens) (UniProt P11387); assay: Inhibition of recombinant human topoisomerase 1-mediated relaxation of supercoiled pBR322 DNA at 100 uM measured after 30 mins by ethidium bromide staining based agarose gel electrophoresis relative to control
T1 sequence (whole entry): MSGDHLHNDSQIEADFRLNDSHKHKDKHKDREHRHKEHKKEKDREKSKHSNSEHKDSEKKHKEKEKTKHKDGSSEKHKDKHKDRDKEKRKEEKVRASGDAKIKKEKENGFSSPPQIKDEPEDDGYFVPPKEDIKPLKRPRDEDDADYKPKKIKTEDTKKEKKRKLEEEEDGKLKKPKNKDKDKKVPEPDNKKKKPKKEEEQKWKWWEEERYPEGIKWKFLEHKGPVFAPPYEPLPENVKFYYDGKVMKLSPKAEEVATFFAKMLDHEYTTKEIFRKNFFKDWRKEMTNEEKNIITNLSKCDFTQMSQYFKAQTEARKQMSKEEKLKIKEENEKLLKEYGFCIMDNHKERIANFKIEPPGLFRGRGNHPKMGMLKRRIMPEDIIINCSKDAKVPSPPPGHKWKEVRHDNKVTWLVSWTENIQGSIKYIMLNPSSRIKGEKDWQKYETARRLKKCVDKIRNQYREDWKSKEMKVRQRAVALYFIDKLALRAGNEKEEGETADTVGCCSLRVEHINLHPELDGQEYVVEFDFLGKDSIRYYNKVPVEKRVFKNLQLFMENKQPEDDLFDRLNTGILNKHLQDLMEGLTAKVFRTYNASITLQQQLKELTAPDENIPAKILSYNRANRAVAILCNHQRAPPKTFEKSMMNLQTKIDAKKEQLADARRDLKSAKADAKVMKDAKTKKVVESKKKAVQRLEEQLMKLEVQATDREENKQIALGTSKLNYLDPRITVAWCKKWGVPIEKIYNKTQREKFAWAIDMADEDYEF

[3] = molecular target: T1, DNA topoisomerase 1 (Homo sapiens); assay: Inhibition of recombinant human topoisomerase 1-mediated relaxation of supercoiled pBR322 DNA at 20 uM measured after 30 mins by ethidium bromide staining based agarose gel electrophoresis relative to control
[4] = molecular target: DNA topoisomerase 2-alpha (Homo sapiens) (UniProt P11388); assay: Inhibition of recombinant human topoisomerase 2alpha-mediated relaxation of supercoiled pBR322 DNA at 100 uM measured after 30 mins by ethidium bromide staining based agarose gel electrophoresis relative to control
Chain of DNA topoisomerase 2-alpha (Homo sapiens) (P11388 whole entry): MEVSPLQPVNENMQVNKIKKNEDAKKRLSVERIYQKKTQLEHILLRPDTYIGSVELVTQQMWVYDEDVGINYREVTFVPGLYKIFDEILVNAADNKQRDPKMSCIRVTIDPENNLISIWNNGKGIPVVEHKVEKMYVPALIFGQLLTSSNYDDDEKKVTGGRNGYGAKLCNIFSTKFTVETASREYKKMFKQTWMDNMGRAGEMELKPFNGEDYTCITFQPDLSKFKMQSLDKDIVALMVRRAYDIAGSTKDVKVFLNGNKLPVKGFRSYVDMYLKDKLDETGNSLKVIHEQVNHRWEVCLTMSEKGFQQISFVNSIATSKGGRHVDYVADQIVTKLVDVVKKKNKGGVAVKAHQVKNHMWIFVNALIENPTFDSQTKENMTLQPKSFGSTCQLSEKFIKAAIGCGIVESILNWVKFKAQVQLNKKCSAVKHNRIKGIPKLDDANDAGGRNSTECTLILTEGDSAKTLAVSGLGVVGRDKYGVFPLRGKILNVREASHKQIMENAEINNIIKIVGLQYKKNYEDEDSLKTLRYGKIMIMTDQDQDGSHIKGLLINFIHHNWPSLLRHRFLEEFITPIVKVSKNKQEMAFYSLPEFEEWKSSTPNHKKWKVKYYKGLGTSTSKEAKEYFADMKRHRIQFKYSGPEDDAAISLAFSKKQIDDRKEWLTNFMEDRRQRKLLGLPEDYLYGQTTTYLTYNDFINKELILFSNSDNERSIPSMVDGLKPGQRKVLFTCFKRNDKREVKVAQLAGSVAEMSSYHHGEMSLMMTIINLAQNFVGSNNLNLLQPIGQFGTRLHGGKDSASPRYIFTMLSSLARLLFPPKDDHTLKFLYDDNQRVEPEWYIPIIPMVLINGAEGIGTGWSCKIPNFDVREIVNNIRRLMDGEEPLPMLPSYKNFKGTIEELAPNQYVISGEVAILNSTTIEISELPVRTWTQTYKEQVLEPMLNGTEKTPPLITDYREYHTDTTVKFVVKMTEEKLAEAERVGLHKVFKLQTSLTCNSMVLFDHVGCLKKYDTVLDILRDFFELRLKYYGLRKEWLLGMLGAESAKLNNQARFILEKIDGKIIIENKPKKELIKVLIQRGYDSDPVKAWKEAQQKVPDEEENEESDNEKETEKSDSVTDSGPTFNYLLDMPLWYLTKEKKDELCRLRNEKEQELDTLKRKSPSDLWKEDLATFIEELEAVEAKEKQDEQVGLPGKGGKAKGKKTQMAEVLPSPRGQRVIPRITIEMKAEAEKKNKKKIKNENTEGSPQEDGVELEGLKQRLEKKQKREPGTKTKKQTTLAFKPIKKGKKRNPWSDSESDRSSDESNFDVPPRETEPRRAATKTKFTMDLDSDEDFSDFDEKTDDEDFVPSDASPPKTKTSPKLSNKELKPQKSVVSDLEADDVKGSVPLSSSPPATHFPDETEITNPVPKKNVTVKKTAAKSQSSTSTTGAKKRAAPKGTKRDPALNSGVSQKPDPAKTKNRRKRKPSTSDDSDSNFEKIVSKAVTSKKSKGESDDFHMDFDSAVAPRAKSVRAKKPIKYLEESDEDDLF

[5] = molecular target: DNA topoisomerase 2-alpha (Homo sapiens) (UniProt P11388); assay: Inhibition of recombinant human topoisomerase 2alpha-mediated relaxation of supercoiled pBR322 DNA at 20 uM measured after 30 mins by ethidium bromide staining based agarose gel electrophoresis relative to control
Calf thymus DNA = assay: Inhibition of EtBr binding to calf thymus DNA measured after 30 mins by fluorescence assay; format: nucleic-acid assay; settings: Bos taurus
MDA-MB-231 = assay: Antiproliferative activity against human MDA-MB-231 cells measured after 72 hrs by Ez-cytox assay; format: functional, cell-based; settings: MDA-MB-231, 72 h
MDA-MB-436 = assay: Antiproliferative activity against human MDA-MB-436 cells measured after 72 hrs by Ez-cytox assay; format: functional, cell-based; settings: MDA-MB-436, 72 h
HCC70 = assay: Antiproliferative activity against human HCC70 cells measured after 72 hrs by Ez-cytox assay; format: functional, cell-based; settings: HCC70, 72 h
[6] = molecular target: DNA topoisomerase 2-alpha (Homo sapiens) (UniProt P11388); assay: Poison activity at topoisomerase-2 alpha in human T47D cells assessed as stabilization of enzyme-DNA cleavage complex by measuring reduction in topo-2alpha level at 50 uM measured after 2 hrs by Western blot analysis; format: cell-based
T47D [7] = assay: Induction of DNA damage in human T47D cells at 5 to 10 uM measured after 24 hrs by comet assay; format: functional, cell-based

| Structure (SMILES) | inhibition [2] [%] | inhibition [3] [%] | inhibition [4] [%] | inhibition [5] [%] | inhibition (Calf thymus DNA) | IC50 (HCT-15) [µM] | IC50 (T47D [1]) [µM] | IC50 (DU-145) [µM] | IC50 (HeLa) [µM] | IC50 (MDA-MB-231) [µM] | IC50 (MDA-MB-436) [µM] | IC50 (HCC70) [µM] | IC50 (HCC70; read-out: IC50) [µM] | Activity [6] | Activity (T47D [7]) |
| --- | --- | --- | --- | --- | --- | --- | --- | --- | --- | --- | --- | --- | --- | --- | --- |
| Oc1ccc2c(c1)Cc1c(-c3ccccc3Cl)cc(-c3ccccc3O)nc1-2 | 37 | 7.4 | 55.9 | 3.5 | – | 3.13 | 3.82 | 4.43 | 17.9 | – | – | – | – | – | – |
| COc1cc(NS(C)(=O)=O)ccc1Nc1c2ccccc2nc2ccccc12 | – | – | – | – | Dose-dependent effect | – | – | – | – | – | – | – | – | – | – |
| CC[C@@]1(O)C(=O)OCc2c1cc1n(c2=O)Cc2cc3ccccc3nc2-1 [CAMPTOTHECIN] | – | – | – | – | – | 0.049 to 0.35 | 0.25 to 1.98 | 0.05 to 0.81 | 0.5 to 1.39 | 24 | 31.9 | 0.044 | – | – | – |
| COc1cccc2c1C(=O)c1c(O)c3c(c(O)c1C2=O)C[C@@](O)(C(=O)CO)C[C@@H]3O[C@H]1C[C@H](N)[C@H](O)[C@H](C)O1 [DOXORUBICIN HYDROCHLORIDE] | – | – | – | – | – | 0.74 to 2.02 | 0.34 to 1.5 | 0.87 to 2.96 | 0.8 to 4.59 | 5.18 | 2.03 | – | 1.45 | – | – |
| Oc1ccc(-c2cc(-c3ccc(C(F)(F)F)cc3)nc3c2Cc2c(O)cccc2-3)cc1 | 32.8 | 0 | 91.3 | 11.1 | – | > 50 | 2.01 | 2.11 | 6.54 | – | – | – | – | – | – |
| Oc1ccc2c(c1)-c1nc(-c3ccccc3O)cc(-c3ccccc3Cl)c1C2 | 59.1 | 14.8 | 74.1 | 38.2 | – | 7.98 | 3.28 | 3.99 | > 50 | – | – | – | – | – | – |
| Oc1cccc(-c2cc(-c3ccccc3C(F)(F)F)nc3c2Cc2c(O)cccc2-3)c1 | 65.7 | 0 | 89.5 | 2.1 | – | 3.39 | 1.46 | 1.8 | 3.79 | – | – | – | – | – | – |
| COc1cc([C@@H]2c3cc4c(cc3[C@@H](O[C@@H]3O[C@@H]5CO[C@@H](C)O[C@H]5[C@H](O)[C@H]3O)[C@H]3COC(=O)[C@H]23)OCO4)cc(OC)c1O [ETOPOSIDE] | – | – | – | – | – | 1.27 to 6.97 | 1.64 to 5.54 | 1.15 to 4.49 | 4.13 to 9.75 | > 50 | 39.4 | – | > 50 | Active | Active |
| Oc1ccc(-c2cc(-c3ccccc3Cl)c3c(n2)-c2cccc(O)c2C3)cc1 | 62.9 | 0 | 97 | 13 | – | 2.42 | 1.73 | 5.84 | 3.72 | – | – | – | – | – | – |
| Oc1ccc(-c2cc(-c3ccc(C(F)(F)F)cc3)nc3c2Cc2cc(O)ccc2-3)cc1 | 87.4 | 0 | 83.2 | 1.1 | – | 2.63 | 1.91 | 1.14 | 4.8 | – | – | – | – | – | – |
| Oc1ccc(-c2cc(-c3ccc(C(F)(F)F)cc3)nc3c2Cc2ccc(O)cc2-3)cc1 | 100 | 0 | 83.1 | 0.5 | – | 5.03 | 1.36 | 2.98 | 5.51 | – | – | – | – | – | – |
| Oc1ccc(-c2cc(-c3ccc(Cl)cc3)nc3c2Cc2c(O)cccc2-3)cc1 | 6.7 | – | 59.9 | 0 | – | 3 | 1.15 | 1.88 | 4.08 | – | – | – | – | – | – |
| Oc1ccccc1-c1cc(-c2ccc(Cl)cc2)nc2c1Cc1c(O)cccc1-2 | 14.5 | – | 80.3 | 7 | – | 2.31 | 1.25 | 0.61 | 1.96 | – | – | – | – | – | – |
| Oc1ccc2c(c1)-c1nc(-c3ccccc3Cl)cc(-c3ccccc3O)c1C2 | 0 | – | 76.8 | 5.8 | – | 4.94 | 2.84 | 0.77 | 6.71 | – | – | – | – | – | – |
| Oc1ccccc1-c1cc(-c2ccccc2Cl)c2c(n1)-c1cccc(O)c1C2 | 23.7 | – | 79.2 | 1.8 | – | 4.12 | 3.03 | 4.03 | 4.59 | – | – | – | – | – | – |

The next lines start with results.

| inhibition [2] [%] | inhibition [3] [%] | inhibition [4] [%] | inhibition [5] [%] | inhibition (Calf thymus DNA) | Structure (SMILES) | IC50 (HCT-15) [µM] | IC50 (T47D [1]) [µM] | IC50 (DU-145) [µM] | IC50 (HeLa) [µM] | IC50 (MDA-MB-231) [µM] | IC50 (MDA-MB-436) [µM] | IC50 (HCC70) [µM] | IC50 (HCC70; read-out: IC50) [µM] | Activity [6] | Activity (T47D [7]) |
| --- | --- | --- | --- | --- | --- | --- | --- | --- | --- | --- | --- | --- | --- | --- | --- |
| 55.8 | 0.3 | 88.7 | 4.6 | – | Oc1ccc(-c2cc(-c3cccc(C(F)(F)F)c3)nc3c2Cc2cc(O)ccc2-3)cc1 | 3.47 | 1.43 | 1.9 | 4.52 | – | – | – | – | – | – |
| 77.4 | 6.3 | 91.3 | 20 | – | Oc1cccc(-c2cc(-c3ccccc3Cl)c3c(n2)-c2ccc(O)cc2C3)c1 | 3.82 | 2.84 | 2.35 | 6.48 | – | – | – | – | – | – |
| 79.3 | 0.2 | 80.2 | 3.6 | – | Oc1cccc(-c2cc(-c3ccccc3Cl)c3c(n2)-c2c(O)cccc2C3)c1 | 2.43 | 2.51 | 3.21 | 3.64 | – | – | – | – | – | – |
| 55.9 | 6.3 | 93.2 | 13.8 | – | Oc1cccc(-c2cc(-c3ccccc3Cl)c3c(n2)-c2cc(O)ccc2C3)c1 | 2.5 | 2.91 | 2.03 | 5 | – | – | – | – | – | – |
| 13.1 | – | 80 | 3.2 | – | Oc1ccccc1-c1cc(-c2cccc(Cl)c2)nc2c1Cc1cccc(O)c1-2 | 1.31 | 0.96 | 0.22 | 3.62 | – | – | – | – | – | – |
| 3.7 | – | 83 | 27 | – | Oc1cccc(-c2cc(-c3cccc(Cl)c3)c3c(n2)-c2ccc(O)cc2C3)c1 | 25.3 | 22.6 | 6.29 | 7.74 | – | – | – | – | – | – |
| 2.1 | – | 54.2 | 2.1 | – | Oc1ccc2c(c1)Cc1c(-c3ccccc3)cc(-c3ccccc3)nc1-2 | 3.37 | 0.7 | 3.82 | 4.94 | – | – | – | – | – | – |
